Assay results taken from patent publication US7138361B2, “Herbicidal heterocycles” (E. I. du Pont de Nemours and Company, priority 2000, dated 2006).

Tests used:
Assay type in all cases: in vivo
Nightshade [1] = assay: Test C preemergence
Sunflower = assay: Test C preemergence; details: Rate 125 g/ha; scale 0 to 100, 0 no effect, 100 complete control
[2] = test system: Surinam grass (Brachiaria decumbens); assay: Test C preemergence
Summary of the method: (§1)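 Pre- and postemergence treatments used a non-phytotoxic solvent/surfactant formulation; post-treated plants measured 2 to 18 cm. Greenhouse hold 12–14 d; % control estimated visually relative to controls.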

[3] = test system: bermudagrass (Cynodon dactylon); assay: Test C preemergence
Summary of the method: as §1

[4] = test system: cocklebur (Xanthium strumarium); assay: Test C preemergence
Summary of the method: as §1

[5] = test system: common ragweed (Ambrosia elatior); assay: Test C preemergence
Summary of the method: as §1

corn (Zea mays) = assay: Test C preemergence; details: for Plant response rating, Corn: scale 0 to 100, 0 no effect, 100 complete control
Summary of the method: as §1

[6] = test system: crabgrass (Digitaria sanguinalis); assay: Test C preemergence
Summary of the method: as §1

[7] = test system: giant foxtail (Setaria faberii); assay: Test C preemergence
Summary of the method: as §1

[8] = test system: goosegrass (Eleusine indica); assay: Test C preemergence
Summary of the method: as §1

[9] = test system: johnsongrass (Sorghum halepense); assay: Test C preemergence
Summary of the method: as §1

kochia (Kochia scoparia) = assay: Test C preemergence
Summary of the method: as §1

[10] = test system: lambsquarters (Chenopodium album); assay: Test C preemergence
Summary of the method: as §1

[11] = test system: morningglory (Ipomoea hederacea); assay: Test C preemergence
Summary of the method: as §1

[12] = test system: pigweed (Amaranthus retroflexus); assay: Test C preemergence
Summary of the method: as §1

soybean (Glycine max) = assay: Test C preemergence
Summary of the method: as §1

[13] = test system: velvetleaf (Abutilon theophrasti); assay: Test C preemergence
Summary of the method: as §1

[14] = test system: woolly cupgrass (Eriochloa villosa); assay: Test C preemergence
Summary of the method: as §1

[15] = test system: yellow nutsedge (Cyperus esculentus); assay: Test C preemergence
Summary of the method: as §1

[16] = test system: duck salad (Heteranthera limosa); assay: Test C flooded paddy test; details: for Plant response rating, Ducksalad: scale 0 to 100 (0 no effect, 100 complete control)
Summary of the method: (§2)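 Response on a 0-to-100 scale (no effect to complete control) was assessed by eye versus controls. Plants had reached 2 leaves when treated in flooded paddy conditions. The assessment took place after 12–14 days of greenhouse growth.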

rice (Oryza saliva) = assay: Test C flooded paddy test; details: for Plant response rating, Rice: scale 0 to 100 (0 no effect, 100 complete control)
Summary of the method: as §2

[17] = test system: smallflower flatsedge (Cyperus difformis); assay: Test C flooded paddy test; details: for Plant response rating, Flatsedge: scale 0 to 100 (0 no effect, 100 complete control)
Summary of the method: as §2

Nightshade [18] = assay: Test C preemergence; details: Rate 500 g/ha, visual evaluation after 12 to 14 days
[19] = Rate 125 g/ha, scale 0 to 100, 0 no effect, 100 complete control
[20] = preemergence, Rate 62 g/ha, scale 0 to 100
[21] = preemergence, Rate 500 g/ha, visual evaluation after 12 to 14 days
[22] = preemergence, Rate 250 g/ha, scale 0 to 100, 0 no effect, 100 complete control
[23] = Flooded Paddy, Rate 500 g/ha, scale 0 to 100, 0 no effect, 100 complete control
[24] = flooded paddy test, Rate 125 g/ha
[25] = flooded paddy test, Rate 250 g/ha
[26] = flooded paddy test, Rate 62 g/ha, visually evaluated after 12 to 14 days, 0 = no effect, 100 = complete control

CCC(C)c1ccn(C2OCN(c3cccc(OC(F)F)c3)C2=O)n1 (stereo not drawn) [Compound 134]
Plant response rating, Nightshade (Nightshade [1]; Rate 62 g/ha, scale 0 to 100): 0 | Plant response rating, Nightshade (Nightshade [1]; [19]): 10 | Plant response rating, Nightshade (Nightshade [1]; Rate 250 g/ha, scale 0 to 100, 0 no effect, 100 complete control): 30 | Plant response rating, Sunflower (Sunflower): 0 | Plant response rating, Surinam grass [2, 19]: 100 | Plant response rating, Surinam grass [2, 20]: 100 | Plant response rating (0 to 100), Surinam grass [2, 21]: 100 | Plant response rating, Surinam grass [2, 22]: 100 | Plant response rating, Bermudagrass [3, 19]: 100 | Plant response rating, Bermudagrass [3, 20]: 100 | Plant response rating (0 to 100 where 0 is no effect and 100 is complete control), Bermudagrass [3, 21]: 100 | Plant response rating, Bermudagrass [3, 22]: 100 | Plant response rating, Cocklebur [4, 19]: 0 | Plant response rating, Cocklebur [4, 20]: 0 | Plant response rating (0 to 100), Cocklebur [4, 21]: 0 | Plant response rating, Cocklebur [4, 22]: 0 | Plant response rating, Ragweed, Common [5, 19]: 0 | Plant response rating, Ragweed, Common [5, 20]: 0 | Plant response rating (0 to 100), Ragweed, Common [5, 21]: 40 | Plant response rating, Ragweed, Common [5, 22]: 0 | Plant response rating, Corn (corn (Zea mays); Rate 125 g/ha): 20 | Plant response rating (0 to 100), Corn (corn (Zea mays); [21]): 100 | Plant response rating, Corn (corn (Zea mays); preemergence, Rate 250 g/ha): 100 | Plant response rating, Crabgrass [6, 19]: 100 | Plant response rating, Crabgrass [6, 20]: 100 | Plant response rating (0 to 100), Crabgrass [6, 21]: 100 | Plant response rating, Crabgrass [6, 22]: 100 | Plant response rating, Foxtail, Giant [7, 19]: 100 | Plant response rating, Foxtail, Giant [7, 20]: 90 | Plant response rating (0 to 100), Foxtail, Giant [7, 21]: 100 | Plant response rating, Foxtail, Giant [7, 22]: 100 | Plant response rating, Goosegrass [8, 19]: 100 | Plant response rating, Goosegrass [8, 20]: 100 | Plant response rating (0 to 100), Goosegrass [8, 21]: 100 | Plant response rating, Goosegrass [8, 22]: 100 | Plant response rating, Johnsongrass [9, 19]: 100 | Plant response rating, Johnsongrass [9, 20]: 100 | Plant response rating (0 to 100), Johnsongrass [9, 21]: 100 | Plant response rating, Johnsongrass [9, 22]: 100 | Plant response rating, Kochia (kochia (Kochia scoparia); [19]): 100 | Plant response rating, Kochia (kochia (Kochia scoparia); [20]): 100 | Plant response rating (0 to 100), Kochia (kochia (Kochia scoparia); [21]): 100 | Plant response rating, Kochia (kochia (Kochia scoparia); [22]): 100 | Plant response rating, Lambsquarters [10, 19]: 100 | Plant response rating, Lambsquarters [10, 20]: 100 | Plant response rating (0 to 100), Lambsquarters [10, 21]: 100 | Plant response rating, Lambsquarters [10, 22]: 100 | Plant response rating, Morningglory [11, 19]: 0 | Plant response rating, Morningglory [11, 20]: 0 | Plant response rating (0 to 100), Morningglory [11, 21]: 0 | Plant response rating, Morningglory [11, 22]: 0 | Plant response rating, Pigweed [12, 19]: 100 | Plant response rating, Pigweed [12, 20]: 100 | Plant response rating (0 to 100), Pigweed [12, 21]: 100 | Plant response rating, Pigweed [12, 22]: 100 | Plant response rating, Soybean (soybean (Glycine max); [19]): 0 | Plant response rating, Soybean (soybean (Glycine max); [20]): 0 | Plant response rating (0 to 100), Soybean (soybean (Glycine max); [21]): 20 | Plant response rating, Soybean (soybean (Glycine max); [22]): 0 | Plant response rating, Velvetleaf [13, 19]: 20 | Plant response rating, Velvetleaf [13, 20]: 20 | Plant response rating (0 to 100), Velvetleaf [13, 21]: 20 | Plant response rating, Velvetleaf [13, 22]: 20 | Plant response rating, Cupgrass, Woolly [14, 19]: 100 | Plant response rating, Cupgrass, Woolly [14, 20]: 100 | Plant response rating (0 to 100), Cupgrass, Woolly [14, 21]: 100 | Plant response rating, Cupgrass, Woolly [14, 22]: 100 | Plant response rating, Nutsedge [15, 19]: 70 | Plant response rating, Nutsedge [15, 20]: 60 | Plant response rating (0 to 100), Nutsedge [15, 21]: 100 | Plant response rating, Nutsedge [15, 22]: 90 | Ducksalad plant response rating [16, 23]: 100 | Plant response rating, Ducksalad [16, 24]: 90 | Plant response rating, Ducksalad [16, 25]: 100 | Plant response rating (scale 0 to 100), Ducksalad [16, 26]: 60 | Rice plant response rating (rice (Oryza saliva); [23]): 90 | Plant response rating, Rice (rice (Oryza saliva); [24]): 60 | Plant response rating, Rice (rice (Oryza saliva); [25]): 90 | Plant response rating (scale 0 to 100), Rice (rice (Oryza saliva); [26]): 0 | Flatsedge plant response rating [17, 23]: 100 | Plant response rating, Flatsedge [17, 24]: 100 | Plant response rating, Flatsedge [17, 25]: 100 | Plant response rating (scale 0 to 100), Flatsedge [17, 26]: 90 | Plant response rating (0 to 100), Nightshade (Nightshade [18]): 90
